Consider one compound from paper PMC7260283, “The Amino Terminus of LeuT Changes Conformation in an Environment Sensitive Manner” (Neurochemical Research, 2019).

The target in the assay is T1, wild type LeuT (Aquifex aeolicus, UniProt O67854).
T1 construct: gene snf; full-length, His-tagged, expressed in E. coli C41(DE3), purified in DDM; plasmid from Eric Gouaux
As to the kind of experiment: scintillation proximity assay, competition of cold leucine with [3H]leucine, YSi beads. It counts as binding. Conditions: purified His-tagged protein; competitive with [3H]leucine. Background: In a scintillation proximity assay essentially only radioactivity close to the scintillant gives light.

Each structure is given as a SMILES string.

In the case of `CC(C)C[C@H](N)C(=O)O` [leucine], the KI was 15.5 ± 2.4 nM.
